Measurements reported in ChEMBL document CHEMBL1201862, “PubChem BioAssay data set” (2004).
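Compound exposure: 48 hours, 5 concentrations, 96-well plates. GI50 marks 50% less growth.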 Calls of active or inactive are those of the source. Cut-off read from the data, not from the text of the source: active = GI50 up to about 1.1 µM and inactive = higher.

Legend:
Experiment in all cases: NCI anticancer screen, dose series, 48 h
[1] = test system: SNB-19
[2] = test system: OVCAR-8
[3] = test system: NCI-H522
[4] = test system: T47D
[5] = test system: SW-620
[6] = test system: NCI-H23
[7] = test system: MDA-MB-435
[8] = test system: SR
[9] = test system: PC-3
[10] = test system: 786-0
[11] = test system: SF-539
[12] = test system: HL-60
[13] = test system: SK-MEL-28
[14] = test system: RXF 393
[15] = test system: U-251
[16] = test system: SK-MEL-2
[17] = test system: K562
[18] = test system: OVCAR-3
[19] = test system: IGROV-1
[20] = test system: OVCAR-5
[21] = test system: UACC-257
[22] = test system: SF-295
[23] = test system: UACC-62
[24] = test system: NCI/ADR-RES
[25] = test system: HCC 2998
[26] = test system: COLO 205
[27] = test system: SNB-75
[28] = test system: MOLT-4
[29] = test system: NCI-H226
[30] = test system: EKVX
[31] = test system: OVCAR-4
[32] = test system: CCRF-CEM
[33] = test system: HCT-15
[34] = test system: A549
[35] = test system: ACHN
[36] = test system: NCI-H460
[37] = test system: SF-268
[38] = test system: Malme-3M
[39] = test system: MCF7
[40] = test system: HT-29
[41] = test system: A498
[42] = test system: KM12
[43] = test system: DU-145
[44] = test system: HCT-116
[45] = test system: SN12C
[46] = test system: UO-31
[47] = test system: CAKI-1
[48] = test system: HOP-92
[49] = test system: Hs-578T
[50] = test system: MDA-MB-231
[51] = test system: SK-MEL-5
[52] = test system: RPMI-8226
[53] = test system: M14
[54] = test system: BT-549
[55] = test system: LOX IMVI
[56] = test system: SK-OV-3
[57] = test system: HOP-62
[58] = test system: TK-10

O=C(C[n+]1ccccc1)N/N=C(\Cc1nc2ccc([N+](=O)[O-])cc2nc1O)C(=O)Nc1cc(Cl)c(Cl)cc1Cl
GI50 [1]: > 100 µM (inactive)
GI50 [2]: > 100 µM (inactive)
GI50 [3]: 61.8 µM (inactive)
GI50 [4]: 68.7 µM (inactive)
GI50 [5]: > 100 µM (inactive)
GI50 [6]: > 100 µM (inactive)
GI50 [7]: > 100 µM (inactive)
GI50 [8]: > 100 µM (inactive)
GI50 [9]: > 100 µM (inactive)
GI50 [10]: > 100 µM (inactive)
GI50 [11]: > 100 µM (inactive)
GI50 [12]: > 100 µM (inactive)
GI50 [13]: > 100 µM (inactive)
GI50 [14]: > 100 µM (inactive)
GI50 [15]: > 100 µM (inactive)
GI50 [16]: > 100 µM (inactive)
GI50 [17]: > 100 µM (inactive)
GI50 [18]: 76 µM (inactive)
GI50 [19]: > 100 µM (inactive)
GI50 [20]: > 100 µM (inactive)
GI50 [21]: > 100 µM (inactive)
GI50 [22]: > 100 µM (inactive)
GI50 [23]: > 100 µM (inactive)
GI50 [24]: 60.1 µM (inactive)
GI50 [25]: 59 µM (inactive)
GI50 [26]: 76.2 µM (inactive)
GI50 [27]: 19.4 µM (inactive)
GI50 [28]: > 100 µM (inactive)
GI50 [29]: 50.5 µM (inactive)
GI50 [30]: > 100 µM (inactive)
GI50 [31]: 79.4 µM (inactive)
GI50 [32]: > 100 µM (inactive)
GI50 [33]: > 100 µM
GI50 [34]: > 100 µM (inactive)
GI50 [35]: > 100 µM (inactive)
GI50 [36]: 87.9 µM (inactive)
GI50 [37]: > 100 µM (inactive)
GI50 [38]: > 100 µM (inactive)
GI50 [39]: 67.3 µM (inactive)
GI50 [40]: > 100 µM (inactive)
GI50 [41]: > 100 µM (inactive)
GI50 [42]: 60.3 µM (inactive)
GI50 [43]: > 100 µM (inactive)
GI50 [44]: > 100 µM (inactive)
GI50 [45]: > 100 µM (inactive)
GI50 [46]: 50.4 µM (inactive)
GI50 [47]: 65.6 µM (inactive)
GI50 [48]: > 100 µM (inactive)
GI50 [49]: > 100 µM (inactive)
GI50 [50]: 41.9 µM (inactive)
GI50 [51]: 95.1 µM (inactive)
GI50 [52]: > 100 µM (inactive)
GI50 [53]: > 100 µM (inactive)
GI50 [54]: > 100 µM (inactive)
GI50 [55]: 60.1 µM (inactive)
GI50 [56]: > 100 µM (inactive)

CN(C)c1ccc(/C=N\NC(=O)CSCC(=O)N/N=C/c2ccc(N(C)C)cc2)cc1
GI50 [1]: > 100 µM (inactive)
GI50 [2]: 53.7 µM (inactive)
GI50 [3]: 27.6 µM (inactive)
GI50 [4]: 23.8 µM (inactive)
GI50 [5]: > 100 µM (inactive)
GI50 [6]: 49.9 µM (inactive)
GI50 [7]: 76.6 µM (inactive)
GI50 [8]: 73.8 µM (inactive)
GI50 [9]: 45.2 µM (inactive)
GI50 [10]: 55.1 µM (inactive)
GI50 [11]: 37.3 µM (inactive)
GI50 [12]: 70.5 µM (inactive)
GI50 [13]: 63.8 µM (inactive)
GI50 [57]: 62.8 µM (inactive)
GI50 [14]: 24.9 µM (inactive)
GI50 [15]: 25.9 µM (inactive)
GI50 [16]: 29.9 µM (inactive)
GI50 [17]: 52.6 µM (inactive)
GI50 [18]: 68.9 µM (inactive)
GI50 [19]: 19.4 µM (inactive)
GI50 [20]: 60.5 µM (inactive)
GI50 [58]: > 100 µM (inactive)
GI50 [21]: > 100 µM (inactive)
GI50 [22]: 31.1 µM (inactive)
GI50 [23]: 35.1 µM (inactive)
GI50 [24]: 36 µM (inactive)
GI50 [26]: 48 µM (inactive)
GI50 [27]: 56 µM (inactive)
GI50 [28]: 36.6 µM (inactive)
GI50 [29]: 34.2 µM (inactive)
GI50 [30]: 44.5 µM (inactive)
GI50 [31]: 43.9 µM (inactive)
GI50 [32]: 60.5 µM (inactive)
GI50 [33]: 16.4 µM
GI50 [34]: 71.9 µM (inactive)
GI50 [35]: 43.4 µM (inactive)
GI50 [36]: 33.2 µM (inactive)
GI50 [37]: > 100 µM (inactive)
GI50 [38]: > 100 µM (inactive)
GI50 [39]: 40.5 µM (inactive)
GI50 [40]: 78.5 µM (inactive)
GI50 [42]: 41.2 µM (inactive)
GI50 [43]: 51.5 µM (inactive)
GI50 [44]: 46.9 µM (inactive)
GI50 [45]: 31.2 µM (inactive)
GI50 [46]: 30.8 µM (inactive)
GI50 [47]: 64.1 µM (inactive)
GI50 [48]: > 100 µM (inactive)
GI50 [49]: 20.6 µM (inactive)
GI50 [50]: 13.7 µM (inactive)
GI50 [51]: 30 µM (inactive)
GI50 [52]: 33.3 µM (inactive)
GI50 [53]: 33.9 µM (inactive)
GI50 [54]: 23.8 µM (inactive)
GI50 [55]: 33.2 µM (inactive)
GI50 [56]: > 100 µM (inactive)
